Patent US10696693B2, “Fused imidazole derivatives as TGF-beta inhibitors” (Rigel Pharmaceuticals, Inc., priority 2014, dated 2020)
Like-named read-outs stand apart in the source and are kept apart here.

What was measured:
GDF8 = assay: AlphaScreen SureFire p-SMAD3 (Ser423/425) assay, GDF8-stimulated cells; assay type: cell-based
Procedure, shortened: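 Lysate (5 μL) went into 384-well shallow plates with 5 μL of Reaction Buffer, Activation Buffer and AlphaScreen Acceptor bead mix. Plates were sealed, kept dark and shaken for 2 hours at room temperature. Donor beads in dilution buffer (2 μL) were added for another 1½ hours, and p-SMAD3 signal was read on a Synergy-4 or Enspire reader.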

TGF-β = assay: AlphaScreen SureFire p-SMAD3 (Ser423/425) assay, TGF-β-stimulated cells; assay type: cell-based
Procedure, shortened: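 The p-SMAD-3 (Ser423/425) SureFire assay measured phosphorylation of endogenous SMAD-3 in cell lysates. Cells were plated overnight in collagen-coated plates, exposed to three-fold serially diluted compounds for about 10 minutes, then stimulated with TGFβ. Lysates (5 μL) received acceptor bead mix for 2 hours, then donor beads for 1½ hours before AlphaScreen reading.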

[1] = Mus musculus, MPC-11, p-SMAD3 (Ser423/425) AlphaScreen in cell lysate, MPC11, GDF8 stimulation, read-out: GDF8: inhibition of GDF8 signaling, GDF pSMAD (MPC11)
[2] = Mus musculus, p-SMAD3 (Ser423/425) AlphaScreen in cell lysate, MPC-11, TGF-β stimulation, read-out: TGF-β: inhibition of TGF-β signaling, TGF-β pSMAD (MPC-11)
[3] = Mus musculus, MPC-11, read-out: GDF8: inhibition of GDF8 signaling, GDF pSMAD (MPC11), p-SMAD3 (Ser423/425) AlphaScreen in cell lysate, GDF8 stimulation
[4] = Mus musculus, MPC-11, read-out: TGF-β: inhibition of TGF-β signaling, TGF-β pSMAD (MPC-11), p-SMAD3 (Ser423/425) AlphaScreen in cell lysate, TGF-β stimulation

Fc1cc(F)c(-c2nc3n(c2-c2ccc4ncc(OCCN5CCOCC5)nc4c2)CCN3)cc1F [Compound 122, 4-(2-((7-(6-(2,4,5-trifluorophenyl)-2,3-dihydro-1H-imidazo[1,2-a]imidazol-5-yl)quinoxalin-2-yl)oxy)ethyl)morpholine]
IC50 (GDF8; [1]): 50 to 100 nM | IC50 (TGF-β; [2]): 100 to 1000 nM

Fc1cc(F)c(F)c(-c2nc3n(c2-c2cc4cnccc4s2)CCC3)c1 [Compound 98, 2-(2-(2,3,5-trifluorophenyl)-6,7-dihydro-5H-pyrrolo[1,2-a]imidazol-3-yl)thieno[3,2-c]pyridine]
IC50 (GDF8; [1]): 100 to 1000 nM | IC50 (TGF-β; [2]): 100 to 1000 nM

Fc1cc(F)c(F)c(-c2nc3n(c2-c2ccc4ncccc4c2)CCC3)c1 [Compound 237, 6-(2-(2,3,5-trifluorophenyl)-6,7-dihydro-5H-pyrrolo[1,2-a]imidazol-3-yl)quinoline]
IC50 (GDF8; [1]): 100 to 1000 nM | IC50 (TGF-β; [2]): > 1000 nM

Cc1c(-c2nc3n(c2-c2ccc4ncnn4c2)CCC3)ccc(F)c1F [Compound 44, 6-(2-(3,4-difluoro-2-methylphenyl)-6,7-dihydro-5H-pyrrolo[1,2-a]imidazol-3-yl)-[1,2,4]triazolo[1,5-a]pyridine]
IC50 (GDF8; [1]): 100 to 1000 nM | IC50 (TGF-β; [2]): > 1000 nM

Cc1cc(-c2nc3n(c2-c2ccc4nccn4c2)CCC3)c(F)cc1Cl [Compound 29]
IC50 (GDF8; [1]): > 1000 nM | IC50 (TGF-β; [2]): > 1000 nM

Fc1cc(-c2nc3n(c2-c2ccc4ncsc4c2)CCC3)cc(F)c1F [Compound 229, 6-(2-(3,4,5-trifluorophenyl)-6,7-dihydro-5H-pyrrolo[1,2-a]imidazol-3-yl)benzo[d]thiazole]
IC50 (GDF8; [3]): 100 to 1000 nM | IC50 (TGF-β; [4]): > 1000 nM

Fc1cc(F)c(-c2nc3n(c2-c2ccc4ncnn4c2)CCC3)cc1F [Compound 14, 6-(2-(2,4,5-trifluorophenyl)-6,7-dihydro-5H-pyrrolo[1,2-a]imidazol-3-yl)-[1,2,4]triazolo[1,5-a]pyridine]
IC50 (GDF8; [1]): < 50 nM | IC50 (TGF-β; [2]): 100 to 1000 nM

O=C(O)C1CCC2(CC1)Cc1nc(-c3ccc(F)cc3)c(-c3ccc4ncsc4c3)n1C2 (centres unmarked) [Compound 332, 3′-(benzo[d]thiazol-6-yl)-2′-(4-fluorophenyl)-5′H,7′H-spiro[cyclohexane-1,6′-pyrrolo[1,2-a]imidazole]-4-carboxylic acid]
IC50 (GDF8; [3]): 100 to 1000 nM | IC50 (TGF-β; [4]): > 1000 nM

COc1cccc(-c2nc3n(c2-c2ccc4cn[nH]c4c2)CCC3)c1 [Compound 186, 6-(2-(3-methoxyphenyl)-6,7-dihydro-5H-pyrrolo[1,2-a]imidazol-3-yl)-1H-indazole]
IC50 (GDF8; [3]): 50 to 100 nM | IC50 (TGF-β; [4]): 100 to 1000 nM

Cc1cc(-c2nc3n(c2-c2ccc4ncnn4c2)CCC3)cc(C)c1F [Compound 42, 6-(2-(4-fluoro-3,5-dimethylphenyl)-6,7-dihydro-5H-pyrrolo[1,2-a]imidazol-3-yl)-[1,2,4]triazolo[1,5-a]pyridine]
IC50 (GDF8; [1]): > 1000 nM | IC50 (TGF-β; [2]): > 1000 nM

COc1cccc(-c2nc3n(c2-c2ccc4nccnc4c2)CCC3)c1 [Compound 188, 6-(2-(3-methoxyphenyl)-6,7-dihydro-5H-pyrrolo[1,2-a]imidazol-3-yl)quinoxaline]
IC50 (GDF8; [3]): 100 to 1000 nM | IC50 (TGF-β; [4]): 100 to 1000 nM

Fc1ccc(-c2nc3n(c2-c2ccc4[nH]ncc4c2)CCC3)cc1F [Compound 205, 5-(2-(3,4-difluorophenyl)-6,7-dihydro-5H-pyrrolo[1,2-a]imidazol-3-yl)-1H-indazole]
IC50 (GDF8; [1]): 100 to 1000 nM | IC50 (TGF-β; [2]): 100 to 1000 nM

Fc1cc(Cl)c(-c2nc3n(c2-c2ccc4nccn4c2)CCC3)cc1F [Compound 50]
IC50 (GDF8; [1]): 50 to 100 nM | IC50 (TGF-β; [2]): 100 to 1000 nM

Fc1ccc(-c2nc3occn3c2-c2ccc3[nH]ncc3c2)c(F)c1F [Compound 160, 6-(2,3,4-trifluorophenyl)-5-(1H-indazol-5-yl)imidazo[2,1-b]oxazole]
IC50 (GDF8; [1]): 50 to 100 nM | IC50 (TGF-β; [2]): 100 to 1000 nM

Cc1cc(F)c(F)cc1-c1nc2n(c1-c1ccc3nccn3c1)CCC2 [Compound 32]
IC50 (GDF8; [1]): 100 to 1000 nM | IC50 (TGF-β; [2]): > 1000 nM

CN(C)CCOc1cnc2ccc(-c3c(-c4cc(F)cc(F)c4F)nc4n3CCC4)cc2n1 [Compound 361, N,N-dimethyl-2-((7-(2-(2,3,5-trifluorophenyl)-6,7-dihydro-5H-pyrrolo[1,2-a]imidazol-3-yl)quinoxalin-2-yl)oxy)ethan-1-amine]
IC50 (GDF8; [3]): > 1000 nM | IC50 (TGF-β; [4]): > 1000 nM

Fc1ccc(-c2nc3n(c2-c2ccc4nccnc4c2)CCC3)cc1F [Compound 208, 6-(2-(3,4-difluorophenyl)-6,7-dihydro-5H-pyrrolo[1,2-a]imidazol-3-yl)quinoxaline]
IC50 (GDF8; [1]): 100 to 1000 nM | IC50 (TGF-β; [2]): > 1000 nM

Fc1ccccc1-c1nc2n(c1-c1ccc3[nH]ncc3c1)CCC2 [Compound 197, 5-(2-(2-fluorophenyl)-6,7-dihydro-5H-pyrrolo[1,2-a]imidazol-3-yl)-1H-indazole]
IC50 (GDF8; [1]): 100 to 1000 nM | IC50 (TGF-β; [2]): > 1000 nM

Fc1ccc(-c2nc3n(c2-c2ccc4ncnn4c2)CCC3)c(F)c1F [Compound 15, 6-(2-(2,3,4-trifluorophenyl)-6,7-dihydro-5H-pyrrolo[1,2-a]imidazol-3-yl)-[1,2,4]triazolo[1,5-a]pyridine]
IC50 (GDF8; [1]): 100 to 1000 nM | IC50 (TGF-β; [2]): > 1000 nM

Fc1ccc(-c2nc3n(c2-c2ccc4ncsc4c2)CC2(CCCC2)C3)cc1 [Compound 325, 6-(2′-(4-fluorophenyl)-5′H,7′H-spiro[cyclopentane-1,6′-pyrrolo[1,2-a]imidazol]-3′-yl)benzo[d]thiazole]
IC50 (GDF8; [3]): > 1000 nM | IC50 (TGF-β; [4]): > 1000 nM

COc1ccc(-c2nc3n(c2-c2ccc4nccnc4c2)CCC3)cc1 [Compound 351, 6-(2-(4-methoxyphenyl)-6,7-dihydro-5H-pyrrolo[1,2-a]imidazol-3-yl)quinoxaline]
IC50 (GDF8; [3]): > 1000 nM | IC50 (TGF-β; [4]): > 1000 nM

Cc1ccc(-c2nc3n(c2-c2ccc4ncccc4c2)CCC3)c(F)c1F [Compound 251, 6-(2-(2,3-difluoro-4-methylphenyl)-6,7-dihydro-5H-pyrrolo[1,2-a]imidazol-3-yl)quinoline]
IC50 (GDF8; [1]): > 1000 nM | IC50 (TGF-β; [2]): > 1000 nM

Clc1cccc(-c2nc3n(c2-c2ccc4nccn4c2)CCC3)c1 [Compound 6, 6-(2-(3-chlorophenyl)-6,7-dihydro-5H-pyrrolo[1,2-a]imidazol-3-yl)imidazo[1,2-a]pyridine]
IC50 (GDF8; [1]): 100 to 1000 nM | IC50 (TGF-β; [2]): 100 to 1000 nM

Cc1cc(-c2nc3n(c2-c2ccc4nccnc4c2)CCC3)c(Cl)cc1F [Compound 318, 6-(2-(2-chloro-4-fluoro-5-methylphenyl)-6,7-dihydro-5H-pyrrolo[1,2-a]imidazol-3-yl)quinoxaline]
IC50 (GDF8; read-out: GDF8: inhibition of GDF8 signaling, GDF pSMAD (MPC11), p-SMAD3 (Ser423/425) AlphaScreen in cell lysate, GDF8 stimulation): 50 to 100 nM | IC50 (TGF-β; read-out: TGF-β: inhibition of TGF-β signaling, TGF-β pSMAD (MPC-11), p-SMAD3 (Ser423/425) AlphaScreen in cell lysate, TGF-β stimulation): 100 to 1000 nM

Clc1cccc(-c2nc3n(c2-c2ccc4[nH]ncc4c2)CCC3)c1 [Compound 189, 5-(2-(3-chlorophenyl)-6,7-dihydro-5H-pyrrolo[1,2-a]imidazol-3-yl)-1H-indazole]
IC50 (GDF8; [3]): 50 to 100 nM | IC50 (TGF-β; [4]): 100 to 1000 nM

Fc1cccc(-c2nc3n(c2-c2ccc4ncccc4c2)CCC3)c1 [Compound 209, 6-(2-(3-fluorophenyl)-6,7-dihydro-5H-pyrrolo[1,2-a]imidazol-3-yl)quinoline]
IC50 (GDF8; [1]): 100 to 1000 nM | IC50 (TGF-β; [2]): > 1000 nM

Cc1c(F)ccc(-c2nc3n(c2-c2ccc4ncsc4c2)CCC3)c1C [Compound 329, 6-(2-(4-fluoro-2,3-dimethylphenyl)-6,7-dihydro-5H-pyrrolo[1,2-a]imidazol-3-yl)benzo[d]thiazole]
IC50 (GDF8; [3]): 100 to 1000 nM | IC50 (TGF-β; [4]): > 1000 nM

Fc1ccccc1-c1nc2n(c1-c1ccc3ncsc3c1)CCC2 [Compound 199, 6-(2-(2-fluorophenyl)-6,7-dihydro-5H-pyrrolo[1,2-a]imidazol-3-yl)benzo[d]thiazole]
IC50 (GDF8; [1]): 100 to 1000 nM | IC50 (TGF-β; [2]): 100 to 1000 nM

Cc1cc(-c2nc3n(c2-c2ccc4ncsc4c2)CCC3)cc(C)c1Cl [Compound 244, 6-(2-(4-chloro-3,5-dimethylphenyl)-6,7-dihydro-5H-pyrrolo[1,2-a]imidazol-3-yl)benzo[d]thiazole]
IC50 (GDF8; [1]): > 1000 nM | IC50 (TGF-β; [2]): > 1000 nM

Cc1ccc(F)c(-c2nc3n(c2-c2ccc4nccnc4c2)CCC3)c1 [Compound 357, 6-(2-(2-fluoro-5-methylphenyl)-6,7-dihydro-5H-pyrrolo[1,2-a]imidazol-3-yl)quinoxaline]
IC50 (GDF8; [1]): < 50 nM | IC50 (TGF-β; [2]): < 50 nM

Cc1c(F)ccc(-c2nc3n(c2-c2ccc4ncnn4c2)CCC3)c1F [Compound 45, 6-(2-(2,4-difluoro-3-methylphenyl)-6,7-dihydro-5H-pyrrolo[1,2-a]imidazol-3-yl)-[1,2,4]triazolo[1,5-a]pyridine]
IC50 (GDF8; [1]): 100 to 1000 nM | IC50 (TGF-β; [2]): 100 to 1000 nM

Cc1ccc(-c2nc3n(c2-c2ccc4nccn4c2)CCC3)c(F)c1F [Compound 27]
IC50 (GDF8; [1]): > 1000 nM | IC50 (TGF-β; [2]): > 1000 nM

Cc1cc(-c2nc3n(c2-c2ccc4ncsc4c2)CCC3)c(F)cc1Cl [Compound 253, 6-(2-(4-chloro-2-fluoro-5-methylpheny)-6,7-dihydro-5H-pyrrolo[1,2-a]imidazol-3-yl)benzo[d]thiazole]
IC50 (GDF8; [1]): > 1000 nM | IC50 (TGF-β; [2]): > 1000 nM

Fc1cccc(-c2nc3n(c2-c2ccc4ncsc4c2)CCC3)c1 [Compound 195, 6-(2-(3-fluorophenyl)-6,7-dihydro-5H-pyrrolo[1,2-a]imidazol-3-yl)benzo[d]thiazole]
IC50 (GDF8; [3]): 100 to 1000 nM | IC50 (TGF-β; [4]): 100 to 1000 nM
